# From PubChem BioAssay AID2060486 (Molecular Pharmacology Branch, DTP, NCI, 2025)
# Tested on: IGROV1 complex spheroids (HUVEC, MSC), viability % test/control
# Assay: Anticancer human tumor IGROV1 cell line growth inhibition [GQUAD];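 also: spheroids exposed to compounds for 7 days before readout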;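 as to viability, T/C: 100% = DMSO vehicle control viability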
# Settings: for IC50: curve of first compound; for viability, T/C: stronger effect = lower value
# In short: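 Viability of tumor cells grown as complex spheroids with endothelial and stromal cells, exposed to drug combinations. Top concentration at or near clinical Cmax (else 10 microM), diluted in half-log increments.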
# [1] = second compound 0.0316 µM, first compound 0.0316 µM
# [2] = second compound 0.0316 µM, first compound 0.1 µM
# [3] = second compound 0.0316 µM, first compound 0.316 µM
# [4] = second compound 0.0316 µM, first compound 1 µM
# [5] = second compound 0.0316 µM, first compound 3.16 µM
# [6] = second compound 0.0316 µM, first compound 10 µM
# [7] = second compound 0.1 µM, first compound 0.0316 µM
# [8] = second compound 0.1 µM, first compound 0.1 µM
# [9] = second compound 0.1 µM, first compound 0.316 µM
# [10] = second compound 0.1 µM, first compound 1 µM
# [11] = second compound 0.1 µM, first compound 3.16 µM
# [12] = second compound 0.1 µM, first compound 10 µM
# [13] = second compound 0.316 µM, first compound 0.0316 µM
# [14] = second compound 0.316 µM, first compound 0.1 µM
# [15] = second compound 0.316 µM, first compound 0.316 µM
# [16] = second compound 0.316 µM, first compound 1 µM
# [17] = second compound 0.316 µM, first compound 3.16 µM
# [18] = second compound 0.316 µM, first compound 10 µM
# [19] = second compound 1 µM, first compound 0.0316 µM
# [20] = second compound 1 µM, first compound 0.1 µM
# [21] = second compound 1 µM, first compound 0.316 µM
# [22] = second compound 1 µM, first compound 1 µM
# [23] = second compound 1 µM, first compound 3.16 µM
# [24] = second compound 1 µM, first compound 10 µM
# [25] = second compound 3.16 µM, first compound 0.0316 µM
# [26] = second compound 3.16 µM, first compound 0.1 µM
# [27] = second compound 3.16 µM, first compound 0.316 µM
# [28] = second compound 3.16 µM, first compound 1 µM
# [29] = second compound 3.16 µM, first compound 3.16 µM
# [30] = second compound 3.16 µM, first compound 10 µM
# [31] = second compound 10 µM, first compound 0.0316 µM
# [32] = second compound 10 µM, first compound 0.1 µM
# [33] = second compound 10 µM, first compound 0.316 µM
# [34] = second compound 10 µM, first compound 1 µM
# [35] = second compound 10 µM, first compound 3.16 µM
# [36] = second compound 10 µM, first compound 10 µM
# [37] = second compound 0.0316 µM, first compound 0.000999 µM
# [38] = second compound 0.0316 µM, first compound 0.00316 µM
# [39] = second compound 0.0316 µM, first compound 0.00999 µM
# [40] = second compound 0.0316 µM, first compound 0.0999 µM
# [41] = second compound 0.1 µM, first compound 0.000999 µM
# [42] = second compound 0.1 µM, first compound 0.00316 µM
# [43] = second compound 0.1 µM, first compound 0.00999 µM
# [44] = second compound 0.1 µM, first compound 0.0999 µM
# [45] = second compound 0.316 µM, first compound 0.000999 µM
# [46] = second compound 0.316 µM, first compound 0.00316 µM
# [47] = second compound 0.316 µM, first compound 0.00999 µM
# [48] = second compound 0.316 µM, first compound 0.0999 µM
# [49] = second compound 1 µM, first compound 0.000999 µM
# [50] = second compound 1 µM, first compound 0.00316 µM
# [51] = second compound 1 µM, first compound 0.00999 µM
# [52] = second compound 1 µM, first compound 0.0999 µM
# [53] = second compound 3.16 µM, first compound 0.000999 µM
# [54] = second compound 3.16 µM, first compound 0.00316 µM
# [55] = second compound 3.16 µM, first compound 0.00999 µM
# [56] = second compound 3.16 µM, first compound 0.0999 µM
# [57] = second compound 10 µM, first compound 0.000999 µM
# [58] = second compound 10 µM, first compound 0.00316 µM
# [59] = second compound 10 µM, first compound 0.00999 µM
# [60] = second compound 10 µM, first compound 0.0999 µM
smiles,measurement,setting,value
C=CC(=O)N1CCN(c2nc(=O)n(-c3c(C)ccnc3C(C)C)c3nc(-c4c(O)cccc4F)c(F)cc23)C(C)C1 (stereo not drawn) + Cc1cnc(CNC(=O)c2c(=O)c3ccc(N4CCCN(C)CC4)nc3n3c2sc2ccccc23)cn1,IC50,second compound 0.0316 µM,> 10000 nM
same,IC50,second compound 0.1 µM,78.4 nM
same,IC50,second compound 0.316 µM,< 31.6 nM
same,IC50,second compound 1 µM,< 31.6 nM
same,IC50,second compound 3.16 µM,< 31.6 nM
same,IC50,second compound 10 µM,< 31.6 nM
same,"viability, T/C",[1],82.8%
same,"viability, T/C",[2],77.2%
same,"viability, T/C",[3],88.5%
same,"viability, T/C",[4],60.1%
same,"viability, T/C",[5],94.6%
same,"viability, T/C",[6],66.9%
same,"viability, T/C",[7],51.8%
same,"viability, T/C",[8],49.3%
same,"viability, T/C",[9],51.4%
same,"viability, T/C",[10],43.8%
same,"viability, T/C",[11],46.6%
same,"viability, T/C",[12],51.4%
same,"viability, T/C",[13],27%
same,"viability, T/C",[14],44.7%
same,"viability, T/C",[15],39.8%
same,"viability, T/C",[16],33.4%
same,"viability, T/C",[17],44.9%
same,"viability, T/C",[18],28.6%
same,"viability, T/C",[19],18.5%
same,"viability, T/C",[20],20.1%
same,"viability, T/C",[21],17%
same,"viability, T/C",[22],17.7%
same,"viability, T/C",[23],26.8%
same,"viability, T/C",[24],19.7%
same,"viability, T/C",[25],10.2%
same,"viability, T/C",[26],11.6%
same,"viability, T/C",[27],11.6%
same,"viability, T/C",[28],12.5%
same,"viability, T/C",[29],15.6%
same,"viability, T/C",[30],12.9%
same,"viability, T/C",[31],12.3%
same,"viability, T/C",[32],16.2%
same,"viability, T/C",[33],16.6%
same,"viability, T/C",[34],15.6%
same,"viability, T/C",[35],14.6%
same,"viability, T/C",[36],10%
CCc1c2c(nc3ccc(O)cc13)-c1cc3c(c(=O)n1C2)COC(=O)[C@]3(O)CC + Cc1cnc(CNC(=O)c2c(=O)c3ccc(N4CCCN(C)CC4)nc3n3c2sc2ccccc23)cn1,IC50,second compound 0.0316 µM,< 0.999 nM
same,IC50,second compound 0.1 µM,< 0.999 nM
same,IC50,second compound 0.316 µM,< 0.999 nM
same,IC50,second compound 1 µM,< 0.999 nM
same,IC50,second compound 3.16 µM,< 0.999 nM
same,IC50,second compound 10 µM,< 0.999 nM
same,"viability, T/C",[37],31.5%
same,"viability, T/C",[38],13.3%
same,"viability, T/C",[39],9.95%
same,"viability, T/C",[1],8.54%
same,"viability, T/C",[40],4.31%
same,"viability, T/C",[3],1.99%
same,"viability, T/C",[41],17.2%
same,"viability, T/C",[42],8.8%
same,"viability, T/C",[43],9.75%
same,"viability, T/C",[7],7.73%
same,"viability, T/C",[44],4.92%
same,"viability, T/C",[9],2.18%
same,"viability, T/C",[45],14.4%
same,"viability, T/C",[46],10.9%
same,"viability, T/C",[47],8.79%
same,"viability, T/C",[13],6.94%
same,"viability, T/C",[48],6.74%
same,"viability, T/C",[15],2.05%
same,"viability, T/C",[49],10.6%
same,"viability, T/C",[50],10.6%
same,"viability, T/C",[51],9.03%
same,"viability, T/C",[19],9.75%
same,"viability, T/C",[52],5.59%
same,"viability, T/C",[21],1.55%
same,"viability, T/C",[53],11.3%
same,"viability, T/C",[54],7%
same,"viability, T/C",[55],6.92%
same,"viability, T/C",[25],5.6%
same,"viability, T/C",[56],3.86%
same,"viability, T/C",[27],0.83%
same,"viability, T/C",[57],7.27%
same,"viability, T/C",[58],8.08%
same,"viability, T/C",[59],7.06%
same,"viability, T/C",[31],6.04%
same,"viability, T/C",[60],3.78%
same,"viability, T/C",[33],0.4%
Cc1cccc(N(C)C(=O)C2C(O)CCN2c2nc(C)cc(C(F)(F)F)c2C#N)c1 (stereo not drawn) + Cc1cnc(CNC(=O)c2c(=O)c3ccc(N4CCCN(C)CC4)nc3n3c2sc2ccccc23)cn1,IC50,second compound 0.0316 µM,> 10000 nM
same,IC50,second compound 0.1 µM,< 31.6 nM
same,IC50,second compound 0.316 µM,< 31.6 nM
same,IC50,second compound 1 µM,< 31.6 nM
same,IC50,second compound 3.16 µM,< 31.6 nM
same,IC50,second compound 10 µM,< 31.6 nM
same,"viability, T/C",[1],66.2%
same,"viability, T/C",[2],68%
same,"viability, T/C",[3],65.6%
same,"viability, T/C",[4],42%
same,"viability, T/C",[5],76.5%
same,"viability, T/C",[6],63%
same,"viability, T/C",[7],45.2%
same,"viability, T/C",[8],38.2%
same,"viability, T/C",[9],38.2%
same,"viability, T/C",[10],31.6%
same,"viability, T/C",[11],39.6%
same,"viability, T/C",[12],34.5%
same,"viability, T/C",[13],24.8%
same,"viability, T/C",[14],23.1%
same,"viability, T/C",[15],20.6%
same,"viability, T/C",[16],26.8%
same,"viability, T/C",[17],29.3%
same,"viability, T/C",[18],17.3%
same,"viability, T/C",[19],12.8%
same,"viability, T/C",[20],9.76%
same,"viability, T/C",[21],20.4%
same,"viability, T/C",[22],14.9%
same,"viability, T/C",[23],21.1%
same,"viability, T/C",[24],17.1%
same,"viability, T/C",[25],11.1%
same,"viability, T/C",[26],11.2%
same,"viability, T/C",[27],13.9%
same,"viability, T/C",[28],12.8%
same,"viability, T/C",[29],13.4%
same,"viability, T/C",[30],10.1%
same,"viability, T/C",[31],8.57%
same,"viability, T/C",[32],9.75%
same,"viability, T/C",[33],7.75%
same,"viability, T/C",[34],10.5%
same,"viability, T/C",[35],14.8%
same,"viability, T/C",[36],11.7%
Cn1ncnc1[C@H]1c2n[nH]c(=O)c3cc(F)cc(c23)N[C@@H]1c1ccc(F)cc1 + Cc1cnc(CNC(=O)c2c(=O)c3ccc(N4CCCN(C)CC4)nc3n3c2sc2ccccc23)cn1,IC50,second compound 0.0316 µM,21.9 nM
same,IC50,second compound 0.1 µM,< 0.999 nM
same,IC50,second compound 0.316 µM,< 0.999 nM
same,IC50,second compound 1 µM,< 0.999 nM
same,IC50,second compound 3.16 µM,< 0.999 nM
same,IC50,second compound 10 µM,< 0.999 nM
same,"viability, T/C",[37],73.9%
same,"viability, T/C",[38],67.1%
same,"viability, T/C",[39],60%
same,"viability, T/C",[1],41%
same,"viability, T/C",[40],38.5%
same,"viability, T/C",[3],19.3%
same,"viability, T/C",[41],44.2%
same,"viability, T/C",[42],34.8%
same,"viability, T/C",[43],30.9%
same,"viability, T/C",[7],21.6%
same,"viability, T/C",[44],21.6%
same,"viability, T/C",[9],19%
same,"viability, T/C",[45],29.5%
same,"viability, T/C",[46],18.9%
same,"viability, T/C",[47],20.2%
same,"viability, T/C",[13],16.8%
same,"viability, T/C",[48],16.5%
same,"viability, T/C",[15],12.4%
same,"viability, T/C",[49],17.3%
same,"viability, T/C",[50],11%
same,"viability, T/C",[51],14.8%
same,"viability, T/C",[19],14%
same,"viability, T/C",[52],12.7%
same,"viability, T/C",[21],12.1%
same,"viability, T/C",[53],11.3%
same,"viability, T/C",[54],8.42%
same,"viability, T/C",[55],10.4%
same,"viability, T/C",[25],13.2%
same,"viability, T/C",[56],9.17%
same,"viability, T/C",[27],7.53%
same,"viability, T/C",[57],8.16%
same,"viability, T/C",[58],10%
same,"viability, T/C",[59],10.5%
same,"viability, T/C",[31],9.96%
same,"viability, T/C",[60],10.5%
same,"viability, T/C",[33],8.19%
